According to patent publication US20100273875A1, “Composition for External Application to Skin” (KAO CORPORATION, priority 2007, published 2010):

Legend:
[1] = David Malka et al., Journal of Hepathology, 1997; cited from earlier work
[2] = system: hairless mice irradiated with UV-B; assay: Measurement of skin elasticity (Ue, Cutometer), Example 1; assay type: in vivo; details: 100 μL/day after UV-B, five times a week over 12 weeks
Procedure: (§1) Six-week-old ICR/HR female mice prepared by mating HR/HR mice with HaM/ICR mice were used as wrinkle model animals (wrinkle-formed hairless mice). The mice were allowed to take feed and water freely and raised in an ultraviolet-free environment of a temperature of 23° C. and a humidity of 55%.
(§2) The hairless mice raised as above were divided into 7 groups each having 8 mice and were irradiated with UV-B. UV-B irradiation was performed according to a known general method described in Tsukahara et al. (Br. J. Dermatol., 2004, 151, p. 984-994) or the like. Specifically, the hairless mice raised as above were placed in cages and irradiated with UV-B using Toshiba SE lamps. Irradiation was performed at an irradiance level of 40 to 50 mJ/cm^2, which corresponds to 0.8 to 1 MED (minimal erythema dose) for general 6-week-old hairless mice, over 12 weeks five times a week.
(§3) Samples to be applied to the hairless mice were prepared as 1% Exemplified Compound (1)/90% ethanol (EtOH) solution, 3% Exemplified Compound (1)/90% EtOH solution, 1% Exemplified Compound (2)/90% EtOH solution, 1% Exemplified Compound (3)/90% EtOH solution, 0.1% Exemplified Compound (4)/90% EtOH solution, and 1% Exemplified Compound (5)/90% EtOH solution.
(§4) Immediately after the ultraviolet ray irradiation, 90% EtOH (control) and the samples prepared as above were applied to the hairless mice of the respective groups over 12 weeks with five times a week at a dose of 100 μL/day. The groups of the hairless mice applied with the samples include “90% EtOH control group” consisting of the mice applied with 90% EtOH, “1%-compound 1 group” consisting of the mice applied with 1% Exemplified Compound (1)/90% EtOH solution, “3%-compound 1 group” consisting of the mice applied with 3% Exemplified Compound (1)/90% EtOH solution, “1%-compound 2 group” consisting of the mice applied with 1% Exemplified Compound (2)/90% EtOH solution, “1%-compound 3 group” consisting of the mice applied with 1% Exemplified Compound (3)/90% EtOH solution, “0.1%-compound 4 group” consisting of the mice applied with 0.1% Exemplified Compound (4)/90% EtOH solution, and “1%-compound 5 group” consisting of the mice applied with 1% Exemplified Compound (5)/90% EtOH solution.
(§5) Measurement of skin elasticity was performed by a known method described in Tsukahara K et al. (Br. J. Dermatol., 2004, 151, p. 984-994) using Cutometer SEM575 (C+K Corporation) to measure a displacement formed in 2 seconds in total with a 1-second suction of 100 mb, followed by a 1-second relaxation period. Measurement was performed five times for each mouse to determine Ue, which is a parameter of an instantaneous elasticity displacement. The Ue value of the 90% EtOH control group was defined as 100, and Ue values of the respective groups were determined.

[3] = system: hairless mice irradiated with UV-B; assay: Comprehensive evaluation of photoaging- and wrinkle-preventing effect, Example 1; assay type: in vivo
Procedure: as §1, §2, §3, §4
(§6) Five-grade evaluation for wrinkles was performed to classify wrinkles into grades 0 to 4 by reference to the method described in Bisselt et al. (Photochem. Photobiol., 1989, 50, p. 763-769) by a known method described in Tsukahara et al. (Br. J. Dermatol., 2004, 151, p. 984-994) or the like.
(§7) The collected replicas were cut out into pieces with a diameter of 1.8 cm, and the pieces were lined with the impression material to correct the pieces and subjected to an image analysis. The image analysis was performed using PIAS LA-555 (PIAS Corporation) by irradiating each piece with light from a direction of oblique 30 degrees to quantify shadows formed in an area of 10 mm×10 mm (image analysis area ratio (%)).
as §5

[4] = system: hairless mice irradiated with UV-B; assay: Evaluation of wrinkle-preventing effect (visual evaluation of wrinkles), Example 1; assay type: in vivo; details: 100 μL/day after UV-B, five times a week over 12 weeks
Procedure: as §1, §2, §3, §4, §6
The score of the 90% EtOH control group was defined as 100, and wrinkle scores of the respective groups were evaluated based on the five-grade evaluation.

[5] = system: hairless mice irradiated with UV-B; assay: Replica image analysis (image analysis area ratio), Example 1; assay type: in vivo; details: 100 μL/day after UV-B, five times a week over 12 weeks
Procedure: as §1, §2, §3, §4
Replica collection and image analysis were performed as described below. A replica was collected from the skin of the back of each hairless mouse using a rubber-based silicon impression material (GC Corporation) by a known method described in Tsukahara K et al. (Br. J. Dermatol., 2004, 151, p. 984-994) or the like.
as §7
The image analysis area ratio of the 90% EtOH control group was defined as 100, and the image analysis area ratios (%) of the respective groups were evaluated based on the image analysis area ratios obtained by the quantification.

[6] = system: wrinkle-formed hairless mice; assay: Evaluation of wrinkle-improving effect (visual evaluation of wrinkles), Example 2; assay type: in vivo; details: 1% in 90% EtOH, five times a week over 6 weeks, after 10 weeks of UV-B; versus 90% EtOH control group
Procedure: Wrinkle-formed hairless mice were prepared according to the description in the sections (1) and (2)(ii) of the above Example 1 by irradiating 6-week-old ICR/HR female mice, prepared by mating HR/HR with HaM/ICR, with UV-B over 10 weeks five times a week.
The hairless mice having wrinkles formed by irradiation with UV-B were visually evaluated with reference to the method described in Bisselt et al. (Photochem. Photobiol., 1989, 50, p. 763-769) by a known method described in Tsukahara et al. (Br. J. Dermatol., 2004, 151, p. 984-994) to divide the mice into two groups each having eight mice so that the average values of wrinkle scores (evaluated according to the description in the section 2)[…])) of the respective groups were almost the same.
A sample to be applied to the wrinkle-formed hairless mice was prepared as 1% compound (1)/90% EtOH solution.
The 90% EtOH (control) and the sample prepared as above were applied to the wrinkle-formed hairless mice of the respective groups over 6 weeks with five times a week at a dose of […]. The groups of the wrinkle-formed hairless mice applied with the samples include “90% EtOH control group” consisting of the mice applied with 90% EtOH, and “1%-compound 1 group” consisting of the mice applied with 1% Exemplified Compound (1)/90% EtOH solution. […]

SMILES	effect of inhibiting the decrease in skin elasticity (Ue) ([2]; 1% in 90% EtOH)	photoaging-preventing and wrinkle-preventing effects (comprehensive evaluation) ([3]; 1% in 90% EtOH)	wrinkle formation inhibiting effect (wrinkle score, visual evaluation) ([4]; 1% in 90% EtOH)	wrinkle formation inhibiting effect (replica image analysis) ([5]; 1% in 90% EtOH)	other results
CCN(CCCc1ccccc1)CCCc1ccccc1 [alverine]					toxicity [1]: high toxicity
CCCCCCCCCCCC(=O)OCCN(C)C [compound 1, 2-dimethylamino-ethyl dodecanoate]	decrease in this order	high	decrease in this order	decrease in this order	effect of inhibiting the decrease in skin elasticity (Ue) ([2]; 3% in 90% EtOH): decrease in this order; photoaging-preventing and wrinkle-preventing effects (comprehensive evaluation) ([3]; 3% in 90% EtOH): high; wrinkle formation inhibiting effect (wrinkle score, visual evaluation) ([4]; 3% in 90% EtOH): decrease in this order; wrinkle formation inhibiting effect (replica image analysis) ([5]; 3% in 90% EtOH): decrease in this order; wrinkle score (wrinkle-improving effect, visual evaluation) [6]: lower than that of the 90% EtOH control group
CCCCCCCCCCCCNC(=O)CN(C)C [compound 2, 2-Dimethylamino-N-dodecyl-acetamide]	decrease in this order	high	decrease in this order	decrease in this order	
CCCCCCCCCCCCOC(=O)CN(C)C [compound 3, Dodecyl dimethylamino acetate]	decrease in this order	high	decrease in this order	decrease in this order	
CCCCCCCCCCCCOCCN(C)C [compound 4, (2-dodecyloxy-ethyl)-dimethylamine]					effect of inhibiting the decrease in skin elasticity (Ue) ([2]; 0.1% in 90% EtOH): decrease in this order; photoaging-preventing and wrinkle-preventing effects (comprehensive evaluation) ([3]; 0.1% in 90% EtOH): high; wrinkle formation inhibiting effect (wrinkle score, visual evaluation) ([4]; 0.1% in 90% EtOH): decrease in this order; wrinkle formation inhibiting effect (replica image analysis) ([5]; 0.1% in 90% EtOH): decrease in this order
CCCCCCCCCCCC(=O)NCCN(C)C [compound 5, (2-dimethylaminoethyl)-amide dodecanoate]	maximum effect of inhibiting the decrease in skin elasticity	high	maximum effect of inhibiting wrinkle formation	maximum effect of inhibiting wrinkle formation	
